Test results taken from US12180226B2, “Spirotricycle RIPK1 inhibitors and methods of uses thereof” (Merck Sharp & Dohme LLC, priority 2021, dated 2024).
Counter-ions that a name gives are not always drawn.

Target: RIPK1 (recombinant GST-RIPK1 kinase domain, residues 1-327) (Homo sapiens (Human), UniProt Q13546)
Test: RIPK1-ADP-Glo Enzymatic Assay
Assay type: biochemical
Details: ADP-Glo; 25 nM GST-RIPK1, 300 μM ATP; assay lower limit ~25 nM; read-out: RIPK1 V0 Ec50
Method in brief: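 Enzyme from baculovirus-infected Sf21 cells, 25 nM final, was pre-incubated 30 min at ambient temperature with compound (ten-point, 1:3 dilution from 100000 nM, 1% DMSO), then reacted 150 min with 300 μM ATP and 3 μM dephosphorylated MBP. ADP was read by luminescence; EC50 from four-parameter fit.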

Chain of RIPK1 (recombinant GST-RIPK1 kinase domain, residues 1-327) (Q13546 1-327): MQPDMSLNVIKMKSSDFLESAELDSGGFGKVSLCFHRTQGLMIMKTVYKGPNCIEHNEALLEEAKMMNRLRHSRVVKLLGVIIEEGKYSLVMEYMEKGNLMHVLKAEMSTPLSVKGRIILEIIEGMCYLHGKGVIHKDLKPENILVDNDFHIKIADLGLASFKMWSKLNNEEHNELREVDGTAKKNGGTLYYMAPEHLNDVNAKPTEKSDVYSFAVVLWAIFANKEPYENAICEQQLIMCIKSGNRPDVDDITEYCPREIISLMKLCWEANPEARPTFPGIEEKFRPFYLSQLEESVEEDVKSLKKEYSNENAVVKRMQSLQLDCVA

EC50 [nM]	SMILES
42.2	Cn1cccc1C(=O)N1CCC2(CC1)O[C@@H]1CC[C@@H](c3cc(F)cc(F)c3)N1C2=O [Example 5.48, (5′S,7a′R)-5′-(3,5-difluoro-phenyl)-1-(1-methyl-1H-pyrrole-2-carbonyl)tetra-hydro-3′H-spiro[piperidine-4,2′-pyrrolo[2,1-b]oxazol]-3′-one]
25.3	N#Cc1ccc(N2CC3(C2)O[C@@H]2CC[C@@H](c4ccccc4)N2C3=O)c2ccnn12 [Example 13.21, 4-((5′S,7a′R)-3′-oxo-5′-phenyltetrahydro-3′H-spiro[azetidine-3,2′-pyrrolo[2,1-b]oxazol]-1-yl)pyrazolo[1,5-a]pyridine-7-carbonitrile, TFA salt]
< 25	O=C(c1ccc(Cl)cc1F)N1CCC2(CC1)O[C@@H]1CC[C@@H](c3cc(F)cc(F)c3)N1C2=O [Example 5.59, (5′S,7a′R)-1-(4-chloro-2-fluorobenzoyl)-5′-(3,5-difluorophenyl)tetrahydro-3′H-spiro[piperidine-4,2′-pyrrolo[2,1-b]oxazol]-3′-one]
< 25	Cc1nc(N2CCC3(CC2)O[C@@H]2CC[C@@H](c4ccccc4)N2C3=O)ccc1F [Example 11.33, (5′S,7a′R)-1-(5-fluoro-6-methylpyridin-2-yl)-5′-phenyltetrahydro-3′H-spiro[piperidine-4,2′-pyrrolo[2,1-b][1,3]oxazol]-3′-one]
< 25	O=C1N2[C@@H](CC[C@H]2c2ccccc2)OC12CCN(c1ccc(Br)n3ncnc13)CC2 [Example 4.216, (5′S,7a′R)-1-(5-bromo [1,2,4]triazolo[1,5-a]pyridin-8-yl)-5′-phenyltetrahydro-3′H-spiro[piperidine-4,2′-pyrrolo[2,1-b] [1,3]oxazol]-3′-one]
92.6	CC(C)OC(=O)c1ccc(N2CCC3(CC2)O[C@@H]2CC[C@@H](c4ccccc4)N2C3=O)nc1 [Example 4.190, propan-2-yl 6-[(5′S,7a′R)-3′-oxo-5′-phenyltetrahydro-1H,3′H-spiro[piperidine-4,2′-pyrrolo[2,1-b] [1,3]oxazol]-1-yl]pyridine-3-carboxylate]
< 25	O=C1N2[C@@H](CC[C@H]2c2ccccc2)OC12CCN(c1ccc(Cl)c3ccnn13)CC2 [Example 4.153, (5′S,7a′R)-1-(4-chloropyrazolo[1,5-a]pyridin-7-yl)-5′-phenyltetrahydro-3′H-spiro[piperidine-4,2′-pyrrolo[2,1-b] [1,3]oxazol]-3′-one]
78.9	O=C1N2[C@@H](CC[C@H]2c2cc(F)cc(F)c2)OC12CCN(c1ncnn3ccnc13)CC2 [Example 4.228, (5′S,7a′R)-5′-(3,5-difluorophenyl)-1-(imidazo[2,1-f] [1,2,4]triazin-4-yl)tetrahydro-3′H-spiro[piperidine-4,2′-pyrrolo[2,1-b] [1,3]oxazol]-3′-one]
208	N#Cc1cscc1[C@@H]1CC[C@H]2OC3(CCN(C(=O)c4ccccc4)CC3)C(=O)N21 [Example 17.13, 4-((5′S,7a′R)-1-benzoyl-3′-oxotetrahydro-3′H-spiro[piperidine-4,2′-pyrrolo[2,1-b]oxazol]-5′-yl)thiophene-3-carbonitrile]
< 25	CC1CN(C(=O)c2ccccc2)CCC12O[C@@H]1CC[C@@H](c3cc(F)cc(F)c3)N1C2=O (stereo partly drawn) [Example 6.110, (5′S,7a′R)-1-(benzene-carbonyl)-5′-(3,5-difluorophenyl)-3-methyltetrahydro-3′H-spiro[piperidine-4,2′-pyrrolo[2,1-b][1,3]-oxazol]-3′-one]
807	N#Cc1ccccc1CN1CCC2(CC1)O[C@@H]1CC[C@@H](c3cc(F)cc(F)c3)N1C2=O [Example 22.3, 2-{[(5′S,7a′R)-5′-(3,5-difluorophenyl)-3′-oxotetrahydro-1H,3′H-spiro[piperidine-4,2′-pyrrolo[2,1-b][1,3]oxazol]-1-yl]methyl}benzonitrile]
102	O=C(c1ccccc1)N1CCC2(CC1)C[C@@H]1OC[C@@H](c3ccccc3)N1C2=O [Example 7.3, (3′R,7a′S)-1-(benzenecarbonyl)-3′-phenyltetrahydro-5′H-spiro[piperidine-4,6′-pyrrolo[2,1-b][1,3]oxazol]-5′-one]
